# Reference: US9346754B2, “Method of treating advanced non-alcoholic steatohepatitis” (priority 2014, dated 2016)
# What was measured:
# Format in all cases: in vivo, C57BL/6 mice
# [1] = system: STAM Model of Advanced Non-Alcoholic Steatohepatitis; test: Alpha-SMA immunostaining, α-SMA-positive area in STAM mice; conditions: for Alpha-SMA-positive area: mean ± SD
# Method: (§1) For immunohistochemistry, sections were cut from frozen liver tissues embedded in Tissue-Tek O.C.T. compound and fixed in acetone. Endogenous peroxidase activity was blocked using 0.03% H2O2 for 5 minutes, followed by incubation with Block Ace (Dainippon Sumitomo Pharma, Japan) for 10 minutes. The sections were incubated with a 200-fold dilution of anti-α-SMA (Epitomics, USA) or anti-F4/80 antibody (BMA Biomedicals, Switzerland) 1 hour at room temperature. […] For quantitative analysis of fibrosis area, inflammation area, and semi-quantification of α-SMA, bright field images of Sirius red-stained, F4/80- and α-SMA-immunostained sections were captured around the central vein using a digital camera (DFC280: Leica Microsystems, Germany) at 200-fold magnification, and the positive areas in 5 fields/section were measured using ImageJ software (National Institute of Health, USA). […] P values<0.05 were considered statistically significant. […] Results were expressed as mean±SD.
# [2] = system: STAM Model of Advanced Non-Alcoholic Steatohepatitis; test: F4/80 immunostaining, percentage of inflammation area in STAM mice; conditions: for F4/80-positive area (inflammation area): mean ± SD
# Method: as §1
# [3] = system: STAM Model of Advanced Non-Alcoholic Steatohepatitis; test: HE staining and NAFLD Activity Score (NAS) in STAM mice; design: key to NAS (NAFLD Activity Score): NAS scored per Kleiner criteria (Hepatology 2005); conditions: for NAS (NAFLD Activity Score): mean ± SD; for Number of mice with Lobular inflammation score 0: score 0 = No foci; for Number of mice with Steatosis score 1: score 1 = 5-33%; for Number of mice with Lobular inflammation score 1: score 1 = <2 foci/200x; for Number of mice with Hepatocyte ballooning score 1: score 1 = Few balloon cells; for Number of mice with Lobular inflammation score 2: score 2 = 2-4 foci/200x; for Number of mice with Steatosis score 2: score 2 = >33-66%; for Number of mice with Hepatocyte ballooning score 2: score 2 = Many cells/prominent ballooning
# Method: STAM™ is a useful model for advanced non-alcoholic steatohepatitis (advanced NASH), symptoms thereof, and related liver disorders, created by the combination of chemical and dietary interventions in C57BL/6 mice. In this example, after inducing NASH, it was allowed to reach an advanced stage, and the mice were treated at 8-12 weeks. […] Vehicle, MN-001, and Telmisartan were administered by oral route in a volume of 10 mL/kg. […] For HE staining, sections were cut from paraffin blocks of liver tissue prefixed in Bouin's solution and stained with Lillie-Mayer's Hematoxylin (Muto Pure Chemicals, Japan) and eosin solution (Wako Pure Chemical Industries). NAFLD Activity score (NAS) was calculated according to the criteria of Kleiner (Kleiner D E. et al., Hepatology, 2005; 41:1313). To visualize collagen deposition, Bouin's fixed liver sections were stained using picro-Sirius red solution (Waldeck, Germany). […] P values<0.05 were considered statistically significant. […] Results were expressed as mean±SD. Ten NASH mice were orally administered vehicle supplemented with MN-001 at a dose of 10 mg/kg once daily from 8 to 12 weeks of age. Ten NASH mice were orally administered vehicle supplemented with MN-001 at a dose of 30 mg/kg once daily from 8 to 12 weeks of age. Ten NASH mice were orally administered vehicle supplemented with MN-001 at a dose of 100 mg/kg once daily from 8 to 12 weeks of age. Ten NASH mice were orally administered pure water supplemented with Telmisartan at a dose of 10 mg/kg once daily from 8 to 12 weeks of age.
# TIMP-1 mRNA = test: Liver gene expression by quantitative RT-PCR: TIMP-1; conditions: 10 mg/kg oral once daily, 8 to 12 weeks of age (MN-001-low; Telmisartan)
# Method: (§2) Total RNA was extracted from liver samples using RNAiso (Takara Bio, Japan) according to the manufacturer's instructions. One μg of RNA was reverse-transcribed using a reaction mixture containing 4.4 mM MgCl2 (F. Hoffmann-La Roche, Switzerland), 40 U RNase inhibitor (Toyobo, Japan), 0.5 mM dNTP (Promega, USA), 6.28 μM random hexamer (Promega), 5× first strand buffer (Promega), 10 mM dithiothreitol (Invitrogen, USA) and 200 U MMLV-RT (Invitrogen) in a final volume of 20 μL. The reaction was carried out for 1 hour at 37° C., followed by 5 minutes at 99° C. Real-time PCR was performed using real-time PCR DICE and SYBR premix Taq (Takara Bio). To calculate the relative mRNA expression level, the expression of each gene was normalized to that of reference gene 36B4 (gene symbol: Rp1p0). Information of PCR-primer sets are described in Table 1. [table] […] P values<0.05 were considered statistically significant. […] Results were expressed as mean±SD.
# Five-Lipoxygenase mRNA = test: Liver gene expression by quantitative RT-PCR: Five-Lipoxygenase
# Method: as §2
# Alpha-SMA mRNA = test: Liver gene expression by quantitative RT-PCR: Alpha-SMA; conditions: any doses of MN-001 (10, 30, 100 mg/kg oral once daily, 8 to 12 weeks of age)
# Method: as §2
# Collagen Type 1 mRNA = test: Liver gene expression by quantitative RT-PCR: Collagen Type 1; conditions: 100 mg/kg oral once daily, 8 to 12 weeks of age (MN-001-high)
# Method: as §2
# [4] = Liver weight and liver-to-body weight ratio in STAM mice; conditions: any doses of MN-001 (10, 30, 100 mg/kg oral once daily)
# Description: Mice in all groups will be sacrificed for the following assays at 12 weeks of age. Individual liver weight will be measured, and liver-to-body weight ratio will be calculated. Liver hydroxyproline will be quantified by a hydrolysis method. Histopathological analyses of liver sections (according to routine methods) HE staining (to estimate NAFLD Activity score), Sirius-red staining (to estimate the percentage of fibrosis area). F4/80 immunostaining (to estimate the percentage of inflammation area), Alpha-SMA immunostaining (to estimate the percentage of a-SMA positive area) are performed. Gene expression assays using total RNA from the liver Real-time RT-PCR analysis will be performed for TIMP-1, Collagen Type 1, α-SMA, 5-lipoxygenase, FLAP and LTC4 synthase are also performed. Statistical tests will be performed using Bonferroni Multiple Comparison Test. P values<0.05 will be considered statistically significant. […] P values<0.05 were considered statistically significant. […] Results were expressed as mean±SD.
# [5] = 10 mg/kg oral once daily, 8 to 12 weeks of age (MN-001-low; Telmisartan)
# [6] = 30 mg/kg oral once daily, 8 to 12 weeks of age (MN-001-middle)
# [7] = 100 mg/kg oral once daily, 8 to 12 weeks of age (MN-001-high)
# [8] = 10 mg/kg oral once daily, 8 to 12 weeks of age (MN-001-low n=10; Telmisartan n=9)
# [9] = 30 mg/kg oral once daily, 8 to 12 weeks of age (MN-001-middle, n=10)
# [10] = 100 mg/kg oral once daily, 8 to 12 weeks of age (MN-001-high, n=10)
# [11] = all doses of MN-001 (10, 30, 100 mg/kg oral once daily, 8 to 12 weeks of age)
# [12] = high dose, 100 mg/kg oral once daily, 8 to 12 weeks of age
# [13] = middle dose, 30 mg/kg oral once daily, 8 to 12 weeks of age
compound,measurement,setting,value
CCCc1c(SCCCOc2ccc(C(C)=O)c(OCCCC(=O)O)c2CCC)ccc(C(C)=O)c1O [MN-001],α-SMA-positive area compared with the Vehicle group,[1]; [5],significantly decreased
same,α-SMA-positive area compared with the Vehicle group,[1]; [6],no significant difference
same,α-SMA-positive area compared with the Vehicle group,[1]; [7],significantly decreased
same,Alpha-SMA-positive area,[1]; [8],0.45 ± 0.11%
same,Alpha-SMA-positive area,[1]; [9],0.76 ± 0.19%
same,Alpha-SMA-positive area,[1]; [10],0.48 ± 0.21%
same,Inflammation area compared with the Vehicle group,"[2]; any doses of MN-001 (10, 30, 100 mg/kg oral once daily, 8 to 12 weeks of age)",no significant differences
same,F4/80-positive area (inflammation area),[2]; [8],6.47 ± 2.67%
same,F4/80-positive area (inflammation area),[2]; [9],6.36 ± 1.59%
same,F4/80-positive area (inflammation area),[2]; [10],5.14 ± 0.89%
same,Hepatocellular ballooning and inflammatory cell infiltration in HE-stained liver sections,[3]; [11],marked improvements
same,NAS compared with the Vehicle group,[3]; [11],significantly decreased
same,Ballooning score,[3]; [12],significantly reduced
same,NAS compared with the Vehicle group,[3]; [12],significantly decreased
same,NAS (NAFLD Activity Score),[3]; [8],3.6 ± 1.4
same,NAS (NAFLD Activity Score),[3]; [9],4.0 ± 0.9
same,NAS (NAFLD Activity Score),[3]; [10],3.1 ± 0.7
same,Ballooning score,[3]; [13],significantly reduced
same,NAS compared with the Vehicle group,[3]; [13],significantly decreased
same,Number of mice with Steatosis score 0,"[3]; score 0 = <5%, 10 mg/kg oral once daily, 8 to 12 weeks of age (MN-001-low n=10; Telmisartan n=9)",3
same,Number of mice with Lobular inflammation score 0,[3]; [8],2
same,Number of mice with Lobular inflammation score 0,[3]; [9],1
same,Number of mice with Lobular inflammation score 0,[3]; [10],4
same,Number of mice with Steatosis score 1,[3]; [8],6
same,Number of mice with Steatosis score 1,[3]; [9],7
same,Number of mice with Steatosis score 1,[3]; [10],9
same,Number of mice with Lobular inflammation score 1,[3]; [8],2
same,Number of mice with Lobular inflammation score 1,[3]; [9],6
same,Number of mice with Lobular inflammation score 1,[3]; [10],5
same,Number of mice with Hepatocyte ballooning score 1,[3]; [8],6
same,Number of mice with Hepatocyte ballooning score 1,[3]; [9],5
same,Number of mice with Hepatocyte ballooning score 1,[3]; [10],7
same,Number of mice with Lobular inflammation score 2,[3]; [8],6
same,Number of mice with Lobular inflammation score 2,[3]; [9],3
same,Number of mice with Lobular inflammation score 2,[3]; [10],1
same,Number of mice with Steatosis score 2,[3]; [8],1
same,Number of mice with Steatosis score 2,[3]; [9],3
same,Number of mice with Steatosis score 2,[3]; [10],1
same,Number of mice with Hepatocyte ballooning score 2,[3]; [8],4
same,Number of mice with Hepatocyte ballooning score 2,[3]; [9],5
same,Number of mice with Hepatocyte ballooning score 2,[3]; [10],3
same,TIMP-1 mRNA expression levels compared with the Vehicle group,TIMP-1 mRNA,significantly down-regulated
same,Five-Lipoxygenase mRNA expression levels compared with the Vehicle group,Five-Lipoxygenase mRNA; [5],no significant differences
same,Five-Lipoxygenase mRNA expression levels compared with the Vehicle group,Five-Lipoxygenase mRNA; [6],no significant differences
same,Five-Lipoxygenase mRNA expression levels compared with the Vehicle group,Five-Lipoxygenase mRNA; [7],tended to decrease
same,α-SMA mRNA expression levels compared with the Vehicle group,Alpha-SMA mRNA,no significant differences
same,Collagen Type 1 mRNA expression levels compared with the Vehicle group,Collagen Type 1 mRNA,tended to decrease
same,Mean liver weight compared with the Vehicle group,[4],no significant differences
same,Mean liver-to-body weight ratio compared with the Vehicle group,[4],no significant differences
